Experimental data: article PMC2766921 (Biochemistry, 2009)

Legend:
[1] = system: purified bacterial succinyl-CoA synthetase (BSCS); experiment: in-gel BN-PAGE ATP hydrolysis assay; format: biochemical, Escherichia coli; details: 8 mM ATP, 20 mM succinate, 0.5 mM CoA, 14 mM MgSO4, pH 7.8, room temperature
[2] = system: purified bacterial succinyl-CoA synthetase (BSCS); experiment: in-gel BN-PAGE GTP hydrolysis assay; format: biochemical, Escherichia coli; details: 8 mM GTP, 20 mM succinate, 0.5 mM CoA, 14 mM MgSO4, pH 7.8, room temperature

purified bacterial succinyl-CoA synthetase (BSCS), sequence (P0AGE9 2-289): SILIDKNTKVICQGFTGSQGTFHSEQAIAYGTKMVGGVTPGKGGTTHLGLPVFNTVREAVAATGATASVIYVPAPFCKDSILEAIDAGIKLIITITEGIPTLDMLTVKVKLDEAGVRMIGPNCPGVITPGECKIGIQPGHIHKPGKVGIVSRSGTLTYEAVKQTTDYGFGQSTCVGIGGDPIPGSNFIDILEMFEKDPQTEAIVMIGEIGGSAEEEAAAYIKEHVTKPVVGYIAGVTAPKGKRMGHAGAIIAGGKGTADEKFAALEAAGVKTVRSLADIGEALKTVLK
purified bacterial succinyl-CoA synthetase (BSCS), sequence (P0A836 whole entry, further chain): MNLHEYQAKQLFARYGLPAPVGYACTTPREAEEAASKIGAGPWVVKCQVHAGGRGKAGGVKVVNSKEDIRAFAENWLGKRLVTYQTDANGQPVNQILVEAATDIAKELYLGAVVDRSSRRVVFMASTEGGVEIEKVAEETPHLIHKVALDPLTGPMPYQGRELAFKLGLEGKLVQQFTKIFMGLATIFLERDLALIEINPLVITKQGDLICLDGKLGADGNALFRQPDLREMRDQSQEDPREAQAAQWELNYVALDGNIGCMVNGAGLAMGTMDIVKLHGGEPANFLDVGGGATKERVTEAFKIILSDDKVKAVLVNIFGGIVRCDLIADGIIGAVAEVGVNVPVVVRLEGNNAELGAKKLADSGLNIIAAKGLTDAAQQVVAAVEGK

Structure (SMILES) | in-gel BN-PAGE ATP hydrolysis assay (lead phosphate) [1] | in-gel BN-PAGE GTP hydrolysis assay (lead phosphate) [2]
Nc1ncnc2c1ncn2[C@@H]1O[C@H](COP(=O)(O)OP(=O)(O)OP(=O)(O)O)[C@@H](O)[C@H]1O [ATP] | ATP-dependent activity of BSCS was higher than the GTP-dependent activity | –
Nc1nc2c(ncn2[C@@H]2O[C@H](COP(=O)(O)OP(=O)(O)OP(=O)(O)O)[C@@H](O)[C@H]2O)c(=O)[nH]1 [GTP] | – | ATP-dependent activity of BSCS was higher than the GTP-dependent activity
